What was measured:
Type in all cases: functional
Enterobacter cloacae = test: Antimicrobial activity against multidrug-resistant Enterobacter cloacae E705 bearing qnrB10 gene with aac(6)-IId-aadA1a integron in presence of IPTG
Klebsiella pneumoniae = test: Antimicrobial activity against multidrug-resistant Klebsiella pneumoniae M7943 bearing qnrB10 gene with aac(6)-Ib-cr-blaOXA-30 catB3-arr-3 integron in presence of IPTG
Escherichia coli [1] = test: Antimicrobial activity against multidrug-resistant Escherichia coli M7943-TC2 bearing qnrB10 gene with aac(6)-Ib-cr-blaOXA-30 catB3-arr-3 integron in presence of IPTG
Escherichia coli [2] = test: Antimicrobial activity against Escherichia coli J53-AzR in presence of IPTG
Escherichia coli [3] = test: Antimicrobial activity against Escherichia coli DH10B expressing pCRQB10 in presence of IPTG; conditions: K-12 substr. DH10B
Escherichia coli [4] = test: Antimicrobial activity against Escherichia coli DH10B expressing pCR2.1 in presence of IPTG; conditions: K-12 substr. DH10B
Escherichia coli [5] = test: Antimicrobial activity against Escherichia coli DH10B in presence of IPTG; conditions: K-12 substr. DH10B

SMILES | MIC (Enterobacter cloacae) | MIC (Klebsiella pneumoniae) | MIC (Escherichia coli [1]) | MIC (Escherichia coli [2]) | MIC (Escherichia coli [3]) | MIC (Escherichia coli [4]) | MIC (Escherichia coli [5])
NCC[C@H](O)C(=O)N[C@@H]1C[C@H](N)[C@@H](O[C@H]2O[C@H](CN)[C@@H](O)[C@H](O)[C@H]2O)[C@H](O)[C@H]1O[C@H]1O[C@H](CO)[C@@H](O)[C@H](N)[C@H]1O [AMIKACIN] | 8 µg/mL | 16 µg/mL | 4 µg/mL | 0.5 µg/mL | 2 µg/mL | 2 µg/mL | 1 µg/mL
O=C(O)c1cn(C2CC2)c2cc(N3CCNCC3)c(F)cc2c1=O [CIPROFLOXACIN] | – | 32 µg/mL | – | – | – | – | –
COc1c(N2CCNC(C)C2)c(F)cc2c(=O)c(C(=O)O)cn(C3CC3)c12 (stereo unspecified) [GATIFLOXACIN] | 32 µg/mL | 4 µg/mL | 0.5 µg/mL | 0.03 µg/mL | 0.06 µg/mL | 0.004 µg/mL | 0.004 µg/mL
NC[C@H]1O[C@H](O[C@H]2[C@H](O)[C@@H](O[C@H]3O[C@H](CO)[C@@H](O)[C@H](N)[C@H]3O)[C@H](N)C[C@@H]2N)[C@H](O)[C@@H](O)[C@@H]1O [KANAMYCIN] | ≥ 256 µg/mL | 128 µg/mL | 64 µg/mL | 2 µg/mL | ≥ 256 µg/mL | ≥ 256 µg/mL | 1 µg/mL
C[C@H]1COc2c(N3CCN(C)CC3)c(F)cc3c(=O)c(C(=O)O)cn1c23.C[C@H]1COc2c(N3CCN(C)CC3)c(F)cc3c(=O)c(C(=O)O)cn1c23.O [LEVOFLOXACIN] | ≥ 64 µg/mL | 4 µg/mL | – | – | – | 0.004 µg/mL | 0.004 µg/mL
COc1c(N2C[C@@H]3CCCN[C@@H]3C2)c(F)cc2c(=O)c(C(=O)O)cn(C3CC3)c12 [MOXIFLOXACIN] | – | 8 µg/mL | 1 µg/mL | – | 0.125 µg/mL | 0.004 µg/mL | 0.004 µg/mL
CCn1cc(C(=O)O)c(=O)c2ccc(C)nc21 [NALIDIXIC ACID] | ≥ 256 µg/mL | 128 µg/mL | 16 µg/mL | 4 µg/mL | 8 µg/mL | 2 µg/mL | 2 µg/mL
CCn1cc(C(=O)O)c(=O)c2cc(F)c(N3CCNCC3)cc21 [NORFLOXACIN] | ≥ 64 µg/mL | 32 µg/mL | 2 µg/mL | 0.03 µg/mL | 0.125 µg/mL | 0.008 µg/mL | 0.008 µg/mL
CC1COc2c(N3CCN(C)CC3)c(F)cc3c(=O)c(C(=O)O)cn1c23 (stereo unspecified) [OFLOXACIN] | ≥ 64 µg/mL | 8 µg/mL | – | – | – | 0.004 µg/mL | 0.004 µg/mL
NC[C@H]1O[C@H](O[C@H]2[C@H](O)[C@@H](O[C@H]3O[C@H](CO)[C@@H](O)[C@H](N)[C@H]3O)[C@H](N)C[C@@H]2N)[C@H](N)C[C@@H]1O [TOBRAMYCIN] | 32 µg/mL | 16 µg/mL | 16 µg/mL | 0.25 µg/mL | 0.25 µg/mL | 0.25 µg/mL | 0.25 µg/mL
